Target: T1, human sputum elastase (HSE) (Homo sapiens, UniProt P08246)
T1 construct: human sputum elastase (HSE); from tissue; host or cells: human sputum (from the enzyme's name only)
T1 sequence (P08246 30-247 limits assumed): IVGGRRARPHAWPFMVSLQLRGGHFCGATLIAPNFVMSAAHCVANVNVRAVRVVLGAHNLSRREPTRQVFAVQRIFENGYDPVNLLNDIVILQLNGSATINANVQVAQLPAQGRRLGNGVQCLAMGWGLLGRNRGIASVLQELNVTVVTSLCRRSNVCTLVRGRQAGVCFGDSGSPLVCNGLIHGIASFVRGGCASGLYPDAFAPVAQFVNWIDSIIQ
Test: Inhibitory effects on human sputum elastase
Format: biochemical
Conditions: pre-incubated at 37°C for 20 minutes; substrate MeO-Suc-Ala-Ala-Pro-Val-pNA, 37°C for 5 minutes; HEPES buffer (pH 8.0); pNA measured at 405 nm
Procedure: (1) Inhibitory effects on human sputum elastase
A mixture of 0.5 ml of 0.2 mM HEPES buffer (pH 8.0), 0.2 ml of 2.5 M aqueous solution of sodium chloride, 0.1 ml of 1% polyethyleneglycol 6000, 0.13 ml of distilled water, 0.01 ml of a solution of test compound in dimethylsulfoxide (DMSO) and 0.05 ml of 0.8 U/ml human sputum elastase (HSE) was pre-incubated at 37°C, for 20 minutes. 0.01 ml of 5 mM MeO-Suc-Ala-Ala-Pro-Val-pNA in DMSO was added to the above mixture and the mixture was incubated at 37°C for 5 minutes. The reaction was terminated by 0.1 ml of 50% acetic acid and then p-nitroanilide (pNA) released was measured spectrophotometrically at 405 nm. Percent inhibition of a compound was calculated by the following equation. Inhibition (%) = [1 - {delta OD (test-blank) / delta OD (control-blank)}] × 100 [formula]

IC50: 88 nM
SMILES: CC(C)C(NC(=O)Cn1c(-c2ccccc2)ncc([N+](=O)[O-])c1=O)C(=O)c1nnc(C(C)(C)C)o1 (racemic) [Example 7(1), N-[(1RS)-1-(5-(t-butyl)-1,3,4-oxadiazol-2-ylcarbonyl)-2-methylpropyl]-2-[6-oxo-2-phenyl-5-nitro-1,6-dihydropyrimidin-1-yl]acetamide]
